Where two headings read alike, the source gives them in different places.
How the values were obtained:
[1] = MTT cytotoxicity test, small intestinal epithelial cells; assay type: cell-based, human; details: human, FHs 74 Int normal small intestinal epithelial cells, FHs 74 Int cells, 100 µg/mL, 48 h, read-out: cell viability at the maximum concentration tested
Procedure: (§1) Distigmasterol-modified acylglycerols were examined for their cytotoxicity in normal human cells originating from the digestive system. The cells were treated for 48 h with increasing concentrations of dStigMAs, and cell proliferation, metabolic activity, and viability were assayed using the MTT test. The cytotoxic effects of the analyzed dStigMAs on CCD 841CoN colon mucosa cells, FHs 74 Int small intestine epithelial cells, and THLE-2 hepatocytes are presented in Figure 6.
(§2) The cytotoxicity of dStigMAs was analyzed at the maximum concentration of 100 µg/mL, which corresponded to doses of 83 µM of dStigC-PA, 81 µM of dStigC-OA, 76 µM of dStigS-PA, and 75 µM of dStigS-OA. The minimum doses tested were 10,000-fold lower. Cell viability and metabolic activity were assessed using the MTT test following the procedure described by Olejnik et al..
(§3) Figure 6 Effect of dStigMAs on (A) normal small intestinal epithelial cells (FHs 74 Int, ATCC® CCL241™), (B) normal colonic epithelial cells (CCD 841CoN, ATCC® CRL-179™), and (C) normal liver cells (THLE-2, ATCC® CRL-2706™).

[2] = system: FHs 74 Int small intestine epithelial cells; test: as above; assay type: cell-based, human; details: FHs 74 Int cells; for dose at which first cytotoxic symptoms were noted: 48 h treatment; for EC50: Homo sapiens, FHs74Int, read-out: median effective concentration (EC50); for EC50 / cytotoxicity (in words): 48 h; for cytotoxicity (in words): 100 µg/mL and lower concentrations
Procedure: as §1, §2, §3

[3] = MTT cytotoxicity test, colon mucosa cells; assay type: cell-based, human; details: human, CCD 841CoN normal colonic epithelial cells, colon cells (CCD 841CoN), 100 µg/mL, read-out: cell proliferation and viability at the maximum dose
Procedure: as §1, §2, §3

[4] = MTT cytotoxicity test, hepatocytes; assay type: cell-based, human; details: human, THLE-2 normal liver cells (hepatocytes), liver cells (THLE-2), 100 µg/mL, read-out: cell proliferation and viability at the maximum dose
Procedure: as §1, §2, §3

[5] = system: CCD 841CoN colon mucosa cells; test: MTT cytotoxicity test, colon mucosa cells; assay type: cell-based, human; details: CCD 841CoN cells, 100 µg/mL and lower concentrations, 48 h
Procedure: as §1, §2, §3

[6] = system: THLE-2 hepatocytes; test: MTT cytotoxicity test, hepatocytes; assay type: cell-based, human; details: THLE-2 cells, 100 µg/mL and lower concentrations, 48 h
Procedure: as §1, §2, §3

CCCCCCCCC=CCCCCCCCC(=O)OCC(COC(=O)OC1CCC2(C)C(=CCC3C2CCC2(C)C(C(C)C=CC(CC)C(C)C)CCC32)C1)OC(=O)OC1CCC2(C)C(=CCC3C2CCC2(C)C(C(C)C=CC(CC)C(C)C)CCC32)C1 (stereo not shown) [dStigC-OA, 2,3-Distigmasterylcarbonoyl-1-Oleoyl-sn-Glycerol]
viability at 48 h, 100 µg/mL [1]: 20.2% | dose at which first cytotoxic symptoms were noted [2]: 0.1 µg/mL | EC50 [2]: 0.47 µg/mL | EC50 ([2]; value in brackets): 381 nM | viability at 48 h, 100 µg/mL [3]: 59.4% | viability at 48 h, 100 µg/mL [4]: 48.9%

CCCCCCCCCCCCCCCC(=O)OCC(COC(=O)O[C@H]1CC[C@@]2(C)C(=CC[C@H]3[C@@H]4CC[C@H]([C@H](C)/C=C/[C@@H](CC)C(C)C)[C@@]4(C)CC[C@@H]32)C1)OC(=O)O[C@H]1CC[C@@]2(C)C(=CC[C@H]3[C@@H]4CC[C@H]([C@H](C)/C=C/[C@@H](CC)C(C)C)[C@@]4(C)CC[C@@H]32)C1 (stereo partly shown) [dStigC-PA, 1,2-Distigmasterylcarbonoyl-3-Palmitoyl-sn-Glycerol]
viability at 48 h, 100 µg/mL [1]: 17.5% | dose at which first cytotoxic symptoms were noted [2]: 0.1 µg/mL | EC50 [2]: 0.32 µg/mL | EC50 ([2]; value in brackets): 266 nM | viability at 48 h, 100 µg/mL [3]: 53.8% | viability at 48 h, 100 µg/mL [4]: 56.3%

CCCCCCCCC=CCCCCCCCC(=O)OCC(COC(=O)CCC(=O)OC1CCC2(C)C(=CCC3C2CCC2(C)C(C(C)C=CC(CC)C(C)C)CCC32)C1)OC(=O)CCC(=O)OC1CCC2(C)C(=CCC3C2CCC2(C)C(C(C)C=CC(CC)C(C)C)CCC32)C1 (stereo not shown) [dStigS-OA, 2,3-Distigmasterylsuccinoyl-1-Oleoyl-sn-Glycerol]
cytotoxicity (in words) [2]: no cytotoxic activity | cytotoxicity (in words) [5]: no cytotoxic activity | cytotoxicity (in words) [6]: no cytotoxic activity

CCCCCCCCCCCCCCCC(=O)OCC(COC(=O)CCC(=O)O[C@H]1CC[C@@]2(C)C(=CC[C@H]3[C@@H]4CC[C@H]([C@H](C)/C=C/[C@@H](CC)C(C)C)[C@@]4(C)CC[C@@H]32)C1)OC(=O)CCC(=O)O[C@H]1CC[C@@]2(C)C(=CC[C@H]3[C@@H]4CC[C@H]([C@H](C)/C=C/[C@@H](CC)C(C)C)[C@@]4(C)CC[C@@H]32)C1 (stereo partly shown) [dStigS-PA, 1,2-Distigmasterylsuccinoyl-3-Palmitoyl-sn-Glycerol]
cytotoxicity (in words) [2]: no cytotoxic activity | cytotoxicity (in words) [5]: no cytotoxic activity | cytotoxicity (in words) [6]: no cytotoxic activity | melting point: 91 to 93 °C
